Data on one substance can be found in US20130150566A1, “TUMOR-TARGETED TNF-RELATED APOPTOSIS-INDUCING LIGAND'S VARIANT AND THE APPLICATION THEREOF” (TARGETPHARMA LABORATORIES (CHANGZHOU) CO., LTD, priority 2011, published 2013).

One assay concerns COLO-205 cells. As to the kind of experiment: Cell apoptosis by double staining of Annexin V and propidium iodide, COLO-205. The settings on record: COLO-205 cell. In kind it is cell-based. On the procedure: (§1) The supernatant is removed and the cells are suspended again by 100 μl binding buffer. Annexin V-FITC (BD Pharmgen Company) is added to which final concentration is 2 μg/ml, and the cells are incubated at the room temperature. 10 minutes later, 400 μl binding buffer is supplemented. The cells are transferred into Flow Analyzer Tube, and 1 μg propidium iodide (Sigma Company) is added into each of the tube. The cells are analyzed by Flow Cytometer within 30 minutes. The experiment is repeated three times for each cell line.
(§2) The activity to induce the tumor cell apoptosis of the tumor-targeted TNF-related apoptosis-inducing ligand's variant NGR-TRAIL is appraised using COLO-205, HCT-15 and HT-29 cells separately (FIG. 4). After induced by series concentration gradient TRAIL variant or TRAIL, the tumor cells are detected by Flow Cytometer according to the double staining method of Annexin V-FITC and Pl. […] The sensibility of Hela cell to TRAIL is increased 8 times because of the addition of the short peptide. […] There is a positive correction between the difference of the apoptosis-inducing to these tumor cells between NGR-L-TRAIL and TRAIL and the expression and the abundance of the CD13 molecule on the surface of tumor cell. […] The NGR domain from NGR-L-TRAIL can direct the protein of TRAIL variant to the surface of target cell to enrichment on the cell surface. […]

Another assay has as its system Hela cells. As to the kind of experiment: Cell apoptosis by double staining of Annexin V and propidium iodide, Hela. Type of assay: cell-based, human. On the procedure:
as §1, §2

Assay [1] concerns mutated Jurkat cells from FADD−/− and Caspase-−/−. As to the kind of experiment: Apoptosis induction in mutated Jurkat cells. Type of assay: cell-based.
The next assay has as its system HCT-15 tumor. As to the kind of experiment: Anti-tumor effect in HCT-15 colon cancer model in nude mice. The settings on record: HCT-15 model; 400 μg/day per mouse combining with CPT-11; 28th day. In kind it is in vivo. On the procedure:
The female nude mice bought from ShangHai Experiment Animal Center are 5-6 weeks old. The mouse tail intravenous injection of 100 μg of purified Asialo GM-1 antibody (Wako Chemicals Company, Japan) that is specific antibody blocking natural killer cells is carried out first. 24 hours later, 100 thousands of COLO-205, HT-15 and HT-29 colon cancer cells is subcutaneously vaccinated at the top right side of the back of a mouse. When the volume of tumor arrives 70 cubic millimeters, the mice are grouped randomly and treated. […] Hydrosoluble camptothecin CPT-11([…], trade name: Campto, from Pharmacia/Upjohn Company) is administrated by intravenous administration once a week, for twice in all. The recombinant protein and camptothecin are diluted by phosphate buffer. The volume of tumor is detected by vernier caliper and calculated according the formula: length is multiplied by the square of width and then is divided by 2.
The anti-tumor effect of tumor-targeted TRAIL used together with chemotherapeutic drug CPT-11 is researched in the present invention. Through COLO-205, HC-15 and HT-29 models of athymic nude mice, the anti-tumor effect of NGR-L-TRAIL used together with chemotherapeutic drug CPT-11 is researched, wherein, COLO-205, HC-15 are sensitive to TRAIL, and COLO-205 is most sensitive, and HT-29 is insensitive to TRAIL. […]

Take “TRAIL: recombinant wild human TNF-related apoptosis-inducing ligand”: the “50% effective concentration (inducing apoptosis)” value with COLO-205 cells stood at 3.5 ng/mL. In addition, the “50% effective concentration (EC50) (inducing apoptosis)” value with Hela cells was around 145 ng/mL. For the same substance, in assay [1], the inducing apoptosis result is reported as “cannot be detected”. The “tumor disappeared mice from the 10 administrated mice” value in the assay on HCT-15 tumor came to 7.
